The source of these data is ChEMBL document CHEMBL3045595, “Synthesis and characterization of new types of 2-(6-methoxy-2-naphthyl)propionamide derivatives as potential antibacterial and antifungal agents” (2013).

Holding throughout (type): functional
One experiment concerns Staphylococcus aureus. As to the kind of experiment: Antibacterial activity against Staphylococcus aureus RCMB 010027 at 25 ug/ml after 24 hrs by agar well diffusion method. As to conditions: RCMB 010027, 24 h, read-out: DIZ. Background: In agar diffusion tests the substance spreads into inoculated agar from a disc or well.
In the next experiment the test system is Escherichia coli. Description: Antibacterial activity against Escherichia coli RCMB 000103 at 25 ug/ml after 24 hrs by agar well diffusion method. As to conditions: RCMB 000103, 24 h, read-out: DIZ.
In a further experiment the test system is Pseudomonas aeruginosa. As to the kind of experiment: Antibacterial activity against Pseudomonas aeruginosa RCMB 010043 at 25 ug/ml after 24 hrs by agar well diffusion method. As to conditions: RCMB 010043, 24 h, read-out: DIZ.
For a further experiment, the system named is Bacillus subtilis. As to the kind of experiment: Antibacterial activity against Bacillus subtilis RCMB 010063 at 25 ug/ml after 24 hrs by agar well diffusion method. Particulars: RCMB 010063, 24 h, read-out: DIZ.
Experiment [1] deals with Candida albicans. Description: Antifungal activity against Candida albicans RCMB 05035.
Experiment [2] concerns Aspergillus ochraceus. Description: Antifungal activity against Aspergillus ochraceus RCMB 02593 at 25 ug/ml after 72 hrs by agar well diffusion method. As to conditions: RCMB 02593, 72 h, read-out: DIZ.
The subject of experiment [3] is Aspergillus ochraceus. Description: Antifungal activity against Aspergillus ochraceus RCMB 02593.
The subject of experiment [4] is Candida albicans. As to the kind of experiment: Antifungal activity against Candida albicans RCMB 05035 at 25 ug/ml after 72 hrs by agar well diffusion method. As to conditions: RCMB 05035, 72 h, read-out: DIZ.

≈ marks a conversion by molar mass, not a printed value.

For the molecule `CC1(C)S[C@@H]2[C@H](NC(=O)[C@H](N)c3ccccc3)C(=O)N2[C@H]1C(=O)O` [AMPICILLIN], the zone of inhibition at 25 µg/mL with Staphylococcus aureus was 28.9 mm; in the experiment on Escherichia coli, 21.4 mm; in the experiment on Pseudomonas aeruginosa, 17.3 mm; in the experiment with Bacillus subtilis it was 34.6 mm.

The MIC is the lowest concentration found to suppress growth. Regarding `OC(Cn1cncn1)(Cn1cncn1)c1ccc(F)cc1F` [FLUCONAZOLE], the values for the MIC with Candida albicans [1] and in the experiment on Aspergillus ochraceus [3] were 0.24 µg/mL (≈ 0.784 µM) and 1.95 µg/mL (≈ 6.37 µM), respectively. Besides, the zone of inhibition at 25 µg/mL was determined as 21.9 mm with Aspergillus ochraceus [2] and 26.4 mm in the experiment on Candida albicans [4].
